Laboratory results from US11173207B2 (priority 2016, dated 2021).

Tested on: Splenocytes
Design: species or system CD-1 mice
Settings: mouse, in vivo

## QS21
  cytokine profile: strong and balanced Th1 plus Th2 cytokine profile
